Reference: ChEMBL document CHEMBL3351970 (Bioorg Med Chem Lett, 2014)

Legend:
[1] = molecular target: T1, Transient receptor potential cation channel subfamily V member 1 (Homo sapiens, UniProt Q8NER1); test: Antagonist activity against human TRPV1 expressed in CHO cells assessed as inhibition of capsaicin-induced channel activation by FLIPR assay; format: cell-based
Mus musculus [2] = test: Anti-allodynic activity in mouse model of chronic constriction injury-induced neuropathic pain assessed as inhibition of pain response at 0.0001 mg/kg, po; format: functional
Mus musculus [3] = test: Inhibition of capsaicin-induced hypothermia in mouse at 10 mg/kg, po administered 15 mins before capsaicin challenge and measured 30 mins post capsaicin injection; format: functional
[4] = molecular target: T1, Transient receptor potential cation channel subfamily V member 1; test: Antagonist activity against human TRPV1 expressed in CHO cells assessed as inhibition of NADA-induced channel activation by FLIPR assay; format: cell-based
Mus musculus [5] = test: Anti-allodynic activity in orally dosed mouse model of chronic constriction injury-induced neuropathic pain assessed as inhibition of pain response; format: functional; conditions: po
Mus musculus [6] = test: Inhibition of capsaicin-induced hypothermia in mouse at 1 mg/kg, po administered 15 mins before capsaicin challenge and measured 30 mins post capsaicin injection; format: functional
Mus musculus [7] = test: Anti-allodynic activity in mouse model of chronic constriction injury-induced neuropathic pain assessed as inhibition of pain response at 0.1 mg/kg, po; format: functional
Mus musculus [8] = test: Anti-allodynic activity in mouse model of chronic constriction injury-induced neuropathic pain assessed as inhibition of pain response at 0.001 mg/kg, po; format: functional
Mus musculus [9] = test: Inhibition of capsaicin-induced hypothermia in mouse at 0.3 mg/kg, po administered 15 mins before capsaicin challenge and measured 30 mins post capsaicin injection; format: functional
Mus musculus [10] = test: Inhibition of capsaicin-induced hypothermia in mouse at 0.1 mg/kg, po administered 15 mins before capsaicin challenge and measured 30 mins post capsaicin injection; format: functional
[11] = molecular target: T1, Transient receptor potential cation channel subfamily V member 1; test: Antagonist activity against human TRPV1 expressed in CHO cells assessed as inhibition of pH-induced channel activation by FLIPR assay; format: cell-based
Mus musculus [12] = test: Inhibition of capsaicin-induced hypothermia in mouse administered orally 15 mins before capsaicin challenge and measured 30 mins post capsaicin injection; format: functional, organism-based
[13] = molecular target: T1, Transient receptor potential cation channel subfamily V member 1; test: Antagonist activity against human TRPV1 expressed in CHO cells assessed as inhibition of 45 degC heat-induced channel activation by FLIPR assay; format: cell-based
Mus musculus [14] = test: Anti-allodynic activity in mouse model of chronic constriction injury-induced neuropathic pain assessed as inhibition of pain response at 0.01 mg/kg, po; format: functional

T1 sequence (Q8NER1 whole entry): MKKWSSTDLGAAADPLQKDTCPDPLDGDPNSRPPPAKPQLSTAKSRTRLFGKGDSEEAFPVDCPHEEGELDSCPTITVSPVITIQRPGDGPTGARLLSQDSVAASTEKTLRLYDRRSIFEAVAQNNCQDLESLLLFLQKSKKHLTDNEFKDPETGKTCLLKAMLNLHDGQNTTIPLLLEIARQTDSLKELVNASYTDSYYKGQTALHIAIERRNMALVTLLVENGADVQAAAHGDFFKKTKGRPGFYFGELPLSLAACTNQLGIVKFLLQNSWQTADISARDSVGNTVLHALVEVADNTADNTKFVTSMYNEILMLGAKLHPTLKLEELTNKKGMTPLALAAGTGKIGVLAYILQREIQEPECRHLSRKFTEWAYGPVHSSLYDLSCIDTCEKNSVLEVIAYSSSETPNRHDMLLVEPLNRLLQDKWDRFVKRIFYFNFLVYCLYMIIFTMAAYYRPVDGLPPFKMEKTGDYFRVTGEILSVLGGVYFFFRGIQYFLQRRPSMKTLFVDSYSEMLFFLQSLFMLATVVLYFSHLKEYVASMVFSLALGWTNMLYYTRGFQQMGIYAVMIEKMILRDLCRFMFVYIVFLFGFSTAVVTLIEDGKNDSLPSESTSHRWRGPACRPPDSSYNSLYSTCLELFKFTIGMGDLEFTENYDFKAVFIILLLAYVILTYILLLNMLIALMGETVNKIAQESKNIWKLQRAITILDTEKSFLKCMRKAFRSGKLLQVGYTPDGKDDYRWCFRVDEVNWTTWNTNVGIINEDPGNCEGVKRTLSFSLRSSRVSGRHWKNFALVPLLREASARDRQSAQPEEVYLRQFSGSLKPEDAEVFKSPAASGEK

CC(C(=O)NCc1ccc(C(F)(F)F)nc1-c1ccsc1)c1ccc(NS(C)(=O)=O)c(F)c1 (stereo unspecified)
Ki [1]: 2 nM

CC(C(=O)NCc1ccc(C(F)(F)F)nc1-c1ccoc1)c1ccc(NS(C)(=O)=O)c(F)c1 (stereo unspecified)
Ki [1]: 1.4 nM

CC(C(=O)NCc1ccc(C(F)(F)F)nc1-c1cc2ccccc2s1)c1ccc(NS(C)(=O)=O)c(F)c1 (stereo unspecified)
Ki [1]: 1 nM

COc1cc(OC)cc(-c2nc(C(F)(F)F)ccc2CNC(=O)C(C)c2ccc(NS(C)(=O)=O)c(F)c2)c1 (stereo unspecified)
Ki [1]: 58 nM

CC(C(=O)NCc1ccc(C(F)(F)F)nc1-c1ccco1)c1ccc(NS(C)(=O)=O)c(F)c1 (stereo unspecified)
Ki [1]: 5.8 nM

CC(C(=O)NCc1ccc(C(F)(F)F)nc1-c1ccc(F)cc1)c1ccc(NS(C)(=O)=O)c(F)c1 (stereo unspecified)
MPE (Mus musculus [2]): 21.9%
inhibition in vivo at 10 mg/kg (Mus musculus [3]): 91%
Ki [4]: 0.84 nM
ED50 (Mus musculus [5]): 0.01 mg/kg
inhibition in vivo at 1 mg/kg (Mus musculus [6]): 60%
MPE (Mus musculus [7]): 47.1%
MPE (Mus musculus [8]): 30.5%
inhibition in vivo at 0.3 mg/kg (Mus musculus [9]): 38%
inhibition in vivo at 0.1 mg/kg (Mus musculus [10]): 25%
Ki [11]: 131 nM
inhibition (Mus musculus [12]): Dose-dependent effect
Ki [13]: 25.9 nM
MPE (Mus musculus [14]): 52.9%

CC(C(=O)NCc1ccc(C(F)(F)F)nc1-n1ccnc1)c1ccc(NS(C)(=O)=O)c(F)c1 (stereo unspecified)
Ki [1]: 36.1 nM

CC(C(=O)NCc1ccc(C(F)(F)F)nc1/C=C/c1ccccc1)c1ccc(NS(C)(=O)=O)c(F)c1 (stereo unspecified)
Ki [1]: 2.2 nM

CC(C(=O)NCc1ccc(C(F)(F)F)nc1Cc1ccccc1)c1ccc(NS(C)(=O)=O)c(F)c1 (stereo unspecified)
Ki [1]: 141 nM
